Test results from PubChem BioAssay (NCI).
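Five concentrations, 48 hours, 96-well plates. Here, GI50 denotes the concentration required for 50% inhibition of growth. The concentration for full growth arrest is given as TGI.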

How the values were obtained:
Test in all cases: NCI-60 cell line screen, 48 h
[1] = system: CAKI-1 renal
[2] = system: COLO 205 colon
[3] = system: UACC-62 melanoma
[4] = system: RXF 393 renal
[5] = system: ACHN renal
[6] = system: MDA-MB-435
[7] = system: OVCAR-3 ovarian
[8] = system: M14 melanoma
[9] = system: EKVX NSCLC
[10] = system: PC-3 prostate
[11] = system: BT-549 breast
[12] = system: A498 renal
[13] = system: A549 NSCLC
[14] = system: OVCAR-5 ovarian
[15] = system: K-562 leukemia
[16] = system: HT29 colon
[17] = system: HOP-62 NSCLC
[18] = system: TK-10 renal
[19] = system: SNB-19 CNS
[20] = system: HS 578T breast
[21] = system: MALME-3M melanoma
[22] = system: SNB-75 CNS
[23] = system: NCI-H226 lung
[24] = system: MCF7 breast
[25] = system: OVCAR-8 ovarian
[26] = system: SR leukemia
[27] = system: LOX IMVI melanoma
[28] = system: U251 CNS
[29] = system: IGROV1 ovarian
[30] = system: HCT-15 colon
[31] = system: NCI/ADR-RES ovarian
[32] = system: RPMI-8226 leukemia
[33] = system: SK-MEL-5 melanoma
[34] = system: MDA-MB-231 breast
[35] = system: T-47D breast
[36] = system: SF-539 CNS
[37] = system: SK-MEL-2 melanoma
[38] = system: HL-60(TB) leukemia
[39] = system: MOLT-4 leukemia
[40] = system: NCI-H460 lung
[41] = system: SK-OV-3 ovarian
[42] = system: HCT-116 colon
[43] = system: 786-0 renal
[44] = system: UACC-257 melanoma
[45] = system: SW-620 colon
[46] = system: HCC-2998 colon
[47] = system: SN12C renal
[48] = system: CCRF-CEM leukemia
[49] = system: NCI-H23 lung
[50] = system: UO-31 renal
[51] = system: SK-MEL-28 melanoma
[52] = system: DU-145 prostate
[53] = system: SF-295 CNS
[54] = system: OVCAR-4 ovarian
[55] = system: NCI-H522 lung
[56] = system: KM12 colon
[57] = system: HOP-92 NSCLC
[58] = system: SF-268 CNS

For `CN1CCN(c2ccc(NC(=O)Nc3ccc4c(ccn4-c4cccc(C(N)=O)n4)c3)cc2C(F)(F)F)CC1`, the GI50 [1] was 6.47 µM, the TGI [1] was 13.5 µM and the GI50 [2] was 5.91 µM. For the same molecule, the TGI [2] was 15.4 µM, the GI50 [3] was 5.65 µM and the TGI [3] was 13.8 µM. For the same molecule, the GI50 [4] was 1060 nM, the TGI [4] was 2500 nM and the GI50 [5] was 6.95 µM. It also gave a TGI [5] of 14.1 µM, a GI50 [6] of 1130 nM and a TGI [6] of 2820 nM. For the same molecule, the GI50 [7] was 8.35 µM, the TGI [7] was 16.4 µM and the GI50 [8] was 991 nM. The TGI [8] was 2210 nM, the GI50 [9] was 6.9 µM and the TGI [9] was 16.3 µM. For the same molecule, the GI50 [10] was 3.34 µM, the TGI [10] was 11 µM and the GI50 [11] was 5.21 µM. For the same molecule, the TGI [11] was 12.5 µM, the GI50 [12] was 7.74 µM and the TGI [12] was 14.8 µM. For the same molecule, the GI50 [13] was 5.2 µM, the TGI [13] was 13.3 µM and the GI50 [14] was 7.54 µM. For the same molecule, the TGI [14] was 17 µM, the GI50 [15] was 938 nM and the TGI [15] was 2170 nM. It also gave a GI50 [16] of 1290 nM, a TGI [16] of 5.5 µM and a GI50 [17] of 5.89 µM. It also gave a TGI [17] of 12.9 µM, a GI50 [18] of 8.51 µM and a TGI [18] of 16.3 µM. The GI50 [19] was 5.99 µM, the TGI [19] was 16.4 µM and the GI50 [20] was 2680 nM. For the same molecule, the TGI [20] was 12.5 µM, the GI50 [21] was 1370 nM and the TGI [21] was 3.79 µM. It also gave a GI50 [22] of 5.06 µM, a TGI [22] of 11.9 µM and a GI50 [23] of 8.61 µM. For the same molecule, the TGI [23] was 20.4 µM, the GI50 [24] was 878 nM and the TGI [24] was 2020 nM. For the same molecule, the GI50 [25] was 10.1 µM, the TGI [25] was 25.1 µM and the GI50 [26] was 929 nM. For the same molecule, the TGI [26] was 2480 nM, the GI50 [27] was 969 nM and the TGI [27] was 2030 nM. It also gave a GI50 [28] of 1330 nM, a TGI [28] of 6.64 µM and a GI50 [29] of 9.04 µM. The TGI [29] was 20.4 µM, the GI50 [30] was 1660 nM and the TGI [30] was 7.33 µM. The GI50 [31] was 9.47 µM, the TGI [31] was 24.2 µM and the GI50 [32] was 1170 nM. The TGI [32] was 2650 nM, the GI50 [33] was 964 nM and the TGI [33] was 2080 nM. It also gave a GI50 [34] of 6.53 µM, a TGI [34] of 19.1 µM and a GI50 [35] of 9.33 µM. For the same molecule, the TGI [35] was 22.8 µM, the GI50 [36] was 1920 nM and the TGI [36] was 8.07 µM. For the same molecule, the GI50 [37] was 5.17 µM, the TGI [37] was 12.4 µM and the GI50 [38] was 5.59 µM. The TGI [38] was 13.5 µM, the GI50 [39] was 1020 nM and the TGI [39] was 2240 nM. It also gave a GI50 [40] of 1740 nM, a TGI [40] of 5.88 µM and a GI50 [41] of 7.14 µM. It also gave a TGI [41] of 13.8 µM, a GI50 [42] of 858 nM and a TGI [42] of 1840 nM. For the same molecule, the GI50 [43] was 834 nM, the TGI [43] was 2000 nM and the GI50 [44] was 1110 nM. The TGI [44] was 2660 nM, the GI50 [45] was 1270 nM and the TGI [45] was 2910 nM. For the same molecule, the GI50 [46] was 6.28 µM, the TGI [46] was 14 µM and the GI50 [47] was 8.1 µM. For the same molecule, the TGI [47] was 18.5 µM, the GI50 [48] was 1400 nM and the TGI [48] was 3.18 µM. The GI50 [49] was 7.61 µM, the TGI [49] was 19.3 µM and the GI50 [50] was 7.38 µM. For the same molecule, the TGI [50] was 15.6 µM, the GI50 [51] was 939 nM and the TGI [51] was 1910 nM. For the same molecule, the GI50 [52] was 5.97 µM, the TGI [52] was 14.5 µM and the GI50 [53] was 969 nM. It also gave a TGI [53] of 2150 nM, a GI50 [54] of 8.09 µM and a TGI [54] of 21.9 µM. It also gave a GI50 [55] of 10.1 µM, a TGI [55] of 20.8 µM and a GI50 [56] of 2250 nM. For the same molecule, the TGI [56] was 9.23 µM, the GI50 [57] was 6.91 µM and the TGI [57] was 15.8 µM. For the same molecule, the GI50 [58] was 6.71 µM and the TGI [58] was 18 µM.
